From PubChem BioAssay AID1963833 (Molecular Pharmacology Branch, DTP, NCI, 2024)

Tested on: 883617-216-R-J1-PDC complex spheroid viability
Assay: Anticancer human tumor 883617-216-R-J1-PDC patient-derived bladder carcinoma cell line growth inhibition [POLQ]
Details: for IC50: curve of first compound; for viability, T/C: stronger effect = lower value
Outline: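 PDC + HUVEC + MSC complex spheroids; POLQ inhibitors ± partner drugs; top conc. at/near clinical Cmax, else 10 microM (SN-38 1 microM), half-log dilutions; 37 degrees C, 5% CO2.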

[1] = second compound 0.0316 µM, first compound 0.0316 µM
[2] = second compound 0.0316 µM, first compound 0.1 µM
[3] = second compound 0.0316 µM, first compound 0.316 µM
[4] = second compound 0.0316 µM, first compound 1 µM
[5] = second compound 0.1 µM, first compound 0.0316 µM
[6] = second compound 0.1 µM, first compound 0.1 µM
[7] = second compound 0.1 µM, first compound 0.316 µM
[8] = second compound 0.1 µM, first compound 1 µM
[9] = second compound 0.316 µM, first compound 0.0316 µM
[10] = second compound 0.316 µM, first compound 0.1 µM
[11] = second compound 0.316 µM, first compound 0.316 µM
[12] = second compound 0.316 µM, first compound 1 µM
[13] = second compound 1 µM, first compound 0.0316 µM
[14] = second compound 1 µM, first compound 0.1 µM
[15] = second compound 1 µM, first compound 0.316 µM
[16] = second compound 1 µM, first compound 1 µM
[17] = second compound 3.16 µM, first compound 0.0316 µM
[18] = second compound 3.16 µM, first compound 0.1 µM
[19] = second compound 3.16 µM, first compound 0.316 µM
[20] = second compound 3.16 µM, first compound 1 µM
[21] = second compound 10 µM, first compound 0.0316 µM
[22] = second compound 10 µM, first compound 0.1 µM
[23] = second compound 10 µM, first compound 0.316 µM
[24] = second compound 10 µM, first compound 1 µM
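Note: spheroids exposed to compounds for seven days before readout.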
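Throughout, for viability, T/C: 100% = DMSO vehicle control viability.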

For `C=CCn1c(=O)c2cnc(Nc3ccc(N4CCN(C)CC4)cc3)nc2n1-c1cccc(C(C)(C)O)n1` + Cc1cccc(N(C)C(=O)C2C(O)CCN2c2nc(C)cc(C(F)(F)F)c2C#N)c1, the IC50 (second compound 0.0316 µM) was 938 nM, the IC50 (second compound 0.1 µM) was > 1000 nM and the IC50 (second compound 0.316 µM) was 896 nM. The IC50 (second compound 1 µM) was > 1000 nM, the IC50 (second compound 3.16 µM) was > 1000 nM and the IC50 (second compound 10 µM) was > 1000 nM. It also gave a viability, T/C (second compound 0.0316 µM, first compound 0.00316 µM) of 106%, a viability, T/C (second compound 0.0316 µM, first compound 0.01 µM) of 101% and a viability, T/C [1] of 96.7%. For the same compound, the viability, T/C [2] was 86.6%, the viability, T/C [3] was 92.7% and the viability, T/C [4] was 47.1%. It also gave a viability, T/C (second compound 0.1 µM, first compound 0.00316 µM) of 93.5%, a viability, T/C (second compound 0.1 µM, first compound 0.01 µM) of 93.3% and a viability, T/C [5] of 95.4%. The viability, T/C [6] was 109%, the viability, T/C [7] was 86.2% and the viability, T/C [8] was 53%. For the same compound, the viability, T/C (second compound 0.316 µM, first compound 0.00316 µM) was 88.2%, the viability, T/C (second compound 0.316 µM, first compound 0.01 µM) was 99.3% and the viability, T/C [9] was 102%. It also gave a viability, T/C [10] of 98.8%, a viability, T/C [11] of 90.8% and a viability, T/C [12] of 45.5%. For the same compound, the viability, T/C (second compound 1 µM, first compound 0.00316 µM) was 97.7%, the viability, T/C (second compound 1 µM, first compound 0.01 µM) was 99% and the viability, T/C [13] was 108%. It also gave a viability, T/C [14] of 112%, a viability, T/C [15] of 81.9% and a viability, T/C [16] of 53.2%. It also gave a viability, T/C (second compound 3.16 µM, first compound 0.00316 µM) of 104%, a viability, T/C (second compound 3.16 µM, first compound 0.01 µM) of 108% and a viability, T/C [17] of 97.6%. It also gave a viability, T/C [18] of 93.6%, a viability, T/C [19] of 100% and a viability, T/C [20] of 53.4%. It also gave a viability, T/C (second compound 10 µM, first compound 0.00316 µM) of 102%, a viability, T/C (second compound 10 µM, first compound 0.01 µM) of 108% and a viability, T/C [21] of 119%. The viability, T/C [22] was 99%, the viability, T/C [23] was 107% and the viability, T/C [24] was 54.3%.
For `Nc1ccn(C2OC(CO)C(O)C2(F)F)c(=O)n1` (centres undefined) + Nc1ccc(C#CCN(C(=O)Cc2ncc(C(F)(F)F)cc2C(F)(F)F)c2ccc(F)cc2)nn1, the IC50 (second compound 0.0316 µM) was < 31.6 nM, the IC50 (second compound 0.1 µM) was < 31.6 nM and the IC50 (second compound 0.316 µM) was < 31.6 nM. The IC50 (second compound 1 µM) was < 31.6 nM, the IC50 (second compound 3.16 µM) was < 31.6 nM and the IC50 (second compound 10 µM) was < 31.6 nM. It also gave a viability, T/C [1] of 33.7%, a viability, T/C [2] of 33.4% and a viability, T/C [3] of 39.8%. The viability, T/C [4] was 33.9%, the viability, T/C (second compound 0.0316 µM, first compound 3.16 µM) was 56% and the viability, T/C (second compound 0.0316 µM, first compound 10 µM) was 37.3%. The viability, T/C [5] was 34.5%, the viability, T/C [6] was 35.1% and the viability, T/C [7] was 38.2%. For the same compound, the viability, T/C [8] was 32.4%, the viability, T/C (second compound 0.1 µM, first compound 3.16 µM) was 37.5% and the viability, T/C (second compound 0.1 µM, first compound 10 µM) was 47.1%. It also gave a viability, T/C [9] of 32.5%, a viability, T/C [10] of 38.7% and a viability, T/C [11] of 39.3%. For the same compound, the viability, T/C [12] was 35.9%, the viability, T/C (second compound 0.316 µM, first compound 3.16 µM) was 35.1% and the viability, T/C (second compound 0.316 µM, first compound 10 µM) was 34.3%. For the same compound, the viability, T/C [13] was 43.1%, the viability, T/C [14] was 39.9% and the viability, T/C [15] was 45.2%. The viability, T/C [16] was 39.8%, the viability, T/C (second compound 1 µM, first compound 3.16 µM) was 43.3% and the viability, T/C (second compound 1 µM, first compound 10 µM) was 37.6%. The viability, T/C [17] was 44.7%, the viability, T/C [18] was 34.4% and the viability, T/C [19] was 35.4%. It also gave a viability, T/C [20] of 60.7%, a viability, T/C (second compound 3.16 µM, first compound 3.16 µM) of 46.2% and a viability, T/C (second compound 3.16 µM, first compound 10 µM) of 35.6%. The viability, T/C [21] was 62.4%, the viability, T/C [22] was 28.1% and the viability, T/C [23] was 34.5%. It also gave a viability, T/C [24] of 47.7%, a viability, T/C (second compound 10 µM, first compound 3.16 µM) of 50.4% and a viability, T/C (second compound 10 µM, first compound 10 µM) of 37.6%.
